Laboratory results from ChEMBL document CHEMBL1201862, “PubChem BioAssay data set” (2004).
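Test compounds were applied to cells in 96-well plates for 48 hours at 5 doses. Abbreviation: GI50, concentration required for 50% inhibition of growth.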 The source made the active and inactive calls. Cut-off read from the data, not from the text of the source: active = GI50 up to about 1.1 µM and inactive = higher. Where a SMILES comes first, the peptide text is derived from it.

Tests used:
Test in all cases: DTP human tumour cell line panel, 48 h
[1] = system: HCT-15
[2] = system: SK-OV-3
[3] = system: SNB-19
[4] = system: OVCAR-3
[5] = system: OVCAR-8
[6] = system: CAKI-1
[7] = system: SF-539
[8] = system: ACHN
[9] = system: SK-MEL-28
[10] = system: T47D
[11] = system: SN12C
[12] = system: M14
[13] = system: UACC-257
[14] = system: IGROV-1
[15] = system: A549
[16] = system: PC-3
[17] = system: UO-31
[18] = system: MDA-N
[19] = system: COLO 205
[20] = system: UACC-62
[21] = system: U-251
[22] = system: NCI/ADR-RES
[23] = system: NCI-H226
[24] = system: HL-60
[25] = system: A498
[26] = system: MOLT-4
[27] = system: HOP-92
[28] = system: KM12
[29] = system: SK-MEL-5
[30] = system: BT-549
[31] = system: SR
[32] = system: SNB-75
[33] = system: OVCAR-4
[34] = system: EKVX
[35] = system: SF-295
[36] = system: SW-620
[37] = system: SF-268
[38] = system: RPMI-8226
[39] = system: CCRF-CEM
[40] = system: NCI-H460
[41] = system: 786-0
[42] = system: SK-MEL-2
[43] = system: DU-145
[44] = system: MDA-MB-231
[45] = system: K562
[46] = system: HT-29
[47] = system: HCT-116
[48] = system: NCI-H23
[49] = system: Malme-3M
[50] = system: MDA-MB-435
[51] = system: HOP-62
[52] = system: NCI-H522
[53] = system: OVCAR-5
[54] = system: MCF7
[55] = system: RXF 393
[56] = system: Hs-578T
[57] = system: LOX IMVI
[58] = system: TK-10
[59] = system: HCC 2998

Measured: GI50

Cc1[nH]c(-c2ccccc2)c(O)c1C(=O)OC1CC(C)CCC1C(C)C (stereo not drawn)
inactive: [2] 15.3 µM | [3] 17.3 µM | [4] 12.7 µM | [5] 16 µM | [6] 17.7 µM | [7] 16.2 µM | [8] 16.4 µM | [9] 16.3 µM | [10] 13.7 µM | [11] 15.7 µM | [12] 15.6 µM | [13] 15.7 µM | [14] 15.6 µM | [15] 13.4 µM | [16] 13.8 µM | [17] 13.3 µM | [18] 16.3 µM | [19] 14.8 µM | [20] 16.5 µM | [21] 15.5 µM | [22] 14.7 µM | [23] 16.9 µM | [24] 16.4 µM | [25] 18.6 µM | [26] 11.1 µM | [27] 17.6 µM | [28] 13.4 µM | [29] 16.6 µM | [30] 18.4 µM | [31] 8.51 µM | [32] 17.9 µM | [33] 13.4 µM | [34] 11.7 µM | [35] 12.4 µM | [36] 15.7 µM | [37] 15.3 µM | [38] 15.3 µM | [39] 11 µM | [40] 15.3 µM | [41] 15.3 µM | [42] 14.3 µM | [43] 15.8 µM | [44] 15.5 µM | [45] 50 µM | [46] 14.4 µM | [47] 14.9 µM | [48] 13.4 µM | [49] 18.7 µM | [50] 14.8 µM | [51] 15.3 µM | [52] 13.3 µM | [53] 14.2 µM | [54] 3.91 µM | [55] 11.7 µM | [56] 18.3 µM
17.8 µM: [1]

CCOC(=O)/C=C1\Nc2ccccc2C12CCc1c([nH]c3ccccc13)C2C(=O)OCC (stereo not drawn)
inactive: [2] 30.2 µM | [3] > 100 µM | [4] 44.2 µM | [5] 88.7 µM | [6] 11.7 µM | [7] 71.8 µM | [8] 49.2 µM | [9] 61.2 µM | [10] 61.2 µM | [11] 44.3 µM | [12] 25.2 µM | [13] 24 µM | [14] 8.59 µM | [15] 29.7 µM | [16] > 100 µM | [17] 21.3 µM | [18] 7.85 µM | [19] 4.66 µM | [20] 59.3 µM | [21] > 100 µM | [22] 11.8 µM | [24] 26.1 µM | [25] 30.1 µM | [26] 8.79 µM | [28] 20.5 µM | [29] 21.8 µM | [30] 52.2 µM | [31] 25.8 µM | [57] 39.2 µM | [33] 16.3 µM | [34] 18.8 µM | [35] 79.4 µM | [36] 17.8 µM | [37] 30.1 µM | [38] 7.52 µM | [39] 29 µM | [40] 12 µM | [41] 57.8 µM | [42] 45.5 µM | [43] 98.2 µM | [44] 18 µM | [45] 48.4 µM | [46] 9.08 µM | [58] 23.8 µM | [47] 17.6 µM | [48] 43.5 µM | [59] 59.3 µM | [49] 10.3 µM | [50] 6.27 µM | [51] > 100 µM | [52] 21.5 µM | [53] > 100 µM | [54] 17.5 µM | [55] > 100 µM | [56] 58.7 µM
46.5 µM: [1]

CC12CCC(=O)C=C1CCC1C2CCC2(C)C(C(=O)Cn3cnc4c(=S)nc[nH]c43)CCC12 (stereo not drawn)
inactive: [2] 33.5 µM | [3] 23.6 µM | [4] 18.2 µM | [5] 27.5 µM | [6] 34 µM | [7] 55.5 µM | [8] 40 µM | [9] > 100 µM | [10] 9.23 µM | [11] 67.8 µM | [12] 27.5 µM | [13] 35.6 µM | [14] 23.6 µM | [15] 48.1 µM | [16] 63.7 µM | [17] 44.8 µM | [18] 39.2 µM | [19] 42 µM | [20] 23.8 µM | [21] 30.1 µM | [22] 62.4 µM | [23] 41.5 µM | [24] 33.3 µM | [25] 29.9 µM | [26] 21.6 µM | [27] 10 µM | [28] 37.9 µM | [29] 30.6 µM | [30] 28.4 µM | [31] 27.4 µM | [32] 15.5 µM | [57] 24.3 µM | [33] 17.3 µM | [34] 41.5 µM | [35] 28.2 µM | [36] 76.2 µM | [37] 38.3 µM | [38] 25.5 µM | [39] 25.5 µM | [40] 28.8 µM | [41] 27.2 µM | [42] 41.9 µM | [43] 23.3 µM | [44] 38.9 µM | [45] 48.3 µM | [46] 33 µM | [58] 36 µM | [47] 35.9 µM | [48] 24.5 µM | [49] 40.5 µM | [50] 24.7 µM | [51] 18.2 µM | [52] 23.4 µM | [53] > 100 µM | [54] 18.1 µM | [55] 17.6 µM | [56] 52 µM
58.6 µM: [1]

CC(=O)NC(CS)C(=O)NC(CO)C(=O)NC(CO)C(=O)NC(Cc1c[nH]c2ccccc12)C(=O)N1CCCC1C(=O)NC(CO)C(=O)NC(Cc1c[nH]c2ccccc12)C(=O)NC(Cc1c[nH]cn1)C(=O)NC(CO)C(=O)NC(Cc1c[nH]c2ccccc12)C(=O)NCC(=O)NCC(=O)NC(CC(=O)O)C(=O)NC(CCC(N)=O)C(=O)NC(CCCCN)C(=O)NC(Cc1ccccc1)C(=O)NC(CCCNC(=N)N)C(=O)NC(CCCCN)C(N)=O (stereo not drawn) (Ac-CSSWPSWHSWGGDQKFRK-NH2; configuration not given here)
inactive: [2] > 25 µM | [3] > 25 µM | [4] > 25 µM | [5] > 25 µM | [6] > 25 µM | [7] > 25 µM | [8] > 25 µM | [9] > 25 µM | [10] > 25 µM | [11] > 25 µM | [12] > 25 µM | [13] > 25 µM | [14] > 25 µM | [15] > 25 µM | [16] > 25 µM | [17] > 25 µM | [18] > 25 µM | [19] > 25 µM | [20] > 25 µM | [21] > 25 µM | [22] > 25 µM | [23] > 25 µM | [24] > 25 µM | [25] > 25 µM | [26] > 25 µM | [27] > 25 µM | [28] > 25 µM | [29] > 25 µM | [30] > 25 µM | [31] > 25 µM | [32] > 25 µM | [57] > 25 µM | [33] > 25 µM | [34] > 25 µM | [35] > 25 µM | [36] > 25 µM | [37] > 25 µM | [38] > 25 µM | [39] > 25 µM | [40] > 25 µM | [41] > 25 µM | [42] > 25 µM | [43] > 25 µM | [44] > 25 µM | [45] > 25 µM | [46] > 25 µM | [58] > 25 µM | [47] > 25 µM | [48] > 25 µM | [49] > 25 µM | [50] > 25 µM | [51] > 25 µM | [52] > 25 µM | [53] > 25 µM | [54] > 25 µM | [55] > 25 µM | [56] > 25 µM
> 25 µM: [1]
